Experimental data as given in patent EP0857779A1, “PROCESS FOR THE BIODEGRADATION OF AROMATIC COMPOUNDS AND SYNTHESIS OF PIGMENTS AND COLORANTS, ALCALOIDS AND POLYMERS, WITH THE USE OF THE R[…] ESCHERICHIA COLI P260” (priority 1996, dated 1998).

What was measured:
[1] = target: T1, 4-HPA hydroxylase of K. pneumoniae (Klebsiella oxytoca, UniProt Q48440); test: Hidroxylase activity expressed by E. coli P260 on different aromatic compounds; format: biochemical; set-up: concentration or dose not given beside the values; conditions: compound as organic substrate of the enzyme expressed by E. coli P260
T1 construct: expressed in transfected cells; host or cells: E. coli CC118 (K-12) transformed with pG260 = E. coli P260 (CECT 4627)
T1 sequence (Q48440 whole entry): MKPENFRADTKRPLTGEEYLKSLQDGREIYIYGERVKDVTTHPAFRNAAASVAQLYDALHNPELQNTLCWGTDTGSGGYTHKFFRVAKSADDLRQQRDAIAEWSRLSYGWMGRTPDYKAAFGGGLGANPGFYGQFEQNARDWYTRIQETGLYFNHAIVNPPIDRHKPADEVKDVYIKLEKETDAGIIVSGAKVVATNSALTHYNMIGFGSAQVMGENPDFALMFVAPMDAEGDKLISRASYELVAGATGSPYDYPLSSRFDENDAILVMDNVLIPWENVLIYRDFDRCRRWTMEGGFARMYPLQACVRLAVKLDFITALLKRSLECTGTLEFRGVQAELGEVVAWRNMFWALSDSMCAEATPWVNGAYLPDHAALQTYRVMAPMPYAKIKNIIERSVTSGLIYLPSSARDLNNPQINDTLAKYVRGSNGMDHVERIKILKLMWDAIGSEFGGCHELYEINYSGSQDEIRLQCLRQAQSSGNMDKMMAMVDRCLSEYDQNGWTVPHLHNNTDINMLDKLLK
Text: (§1) By means of hydroxylation, this enzyme transforms 3-HPA and 4-HPA into 3,4-DHPA which, after the subdequent action of a dioxygenase, loses its aromaticity. For the isolation of these genes, the chromosomic DNA of K. pneumoniae was isolated and digested with the restriction enzyme Bam Hl. As a cloning vector the plasmid pUC18Not was chosen (Herrero et al., 1990; J. Bacteriol. 72:6557-67), digested with BamHl and dephosphorilated. Bonding mixtures were used in the transformation of the mutant strain W-21 of E. coli (Lacrec A), a mutant deficient in the 4-HPA hydroxylase enzyme. The transformants were select on plates that contained ampicillin (100 µg/ml), IPTG and X-Gal and subsequently on selected media with Ampicillin and 4-HPA as the sole source of carbon and energy. A recombinant plasmid complemented the 4-HPA mutation of E. coli W-21 and treating this transformant with acridin orange caused reversion to the mutant phenotype (due to loss of plasmids). […] Synthesis of the enzyme was checked by determining enzymatic activity in "standard" conditions, by means of a spectrophotometric test (Martin et al., 1991; J. Gen. Microbiol. 132: 621-628). In this way it was established that the enzyme synthesized constitutively in the strains of E. coli derived from K-12 (strains incapable of metabolizing 4-HPA because they lack all the genes of the degradative route), unlike what occurs in K. pneumoniae M5a1 or E. coli W, where synthesis of the enzyme is inducible by 3-HPA and/or 4-HPA. The E. coli K-12 (E. coli CC118) strains, transformed by the recombinant plasmid, were called E. coli P260. […]
The E. coli P260 cultures produced a blackish brown pigmentation in LB or BHI as a consequence of the expression of the cloned genes. […] To investigate this hypothesis, several aromatic compounds were analyzed, different from 3-HPA and 4-HPA, as possible substrates of the enzyme (Table 2).

[2] = system: E. coli W-P260 strain; test: Biodegradation (mineralization) of the aromatic compound by a growing culture, 14C-CO2 trapping and HPLC; format: cell-based; conditions: minimum PJC medium with glycerol and 4-HPA 2.5 mM, 30°C, 200 rpm
Procedure: In a test experiment, the following procedure was carried out: the E. coli W-P260 strain (obtained by transformation of the E. coli W-21 strain, mutant in hpa genes) was grown in a minimum PJC medium supplemented with glycerol and 4-HPA 2.5 mM (10% of which was marked with ^14C in the aromatic ring). Incubation was carried out at 30°C and with stirring (200 rpm). In order to quantify the biotransformation of the aromatic ring, the CO2 formed during the process was collected on NaOH 1N located in the lid of the matrass so that it would act as a trapping agent. Samples were taken at different times (Figure 3) so as to evaluate the formation of biomass (DO 680), release of CO2 (cpm) and the disappearance of 4 HPA (measurement of concentration by HPLC). In Figure 3 it may be observed how the mineralization capacity of the E. coli W-P260 strain achieves mineralization of the aromatic compound in 12 hours.

[3] = system: 4-HPA hidroxylase; test: 4-HPA hydroxylase activity of strains, spectrophotometric test in standard conditions; format: biochemical, K. pneumoniae
Text: as §1

Row | SMILES | % ACTIVITY [1] [%] | other results
1 | O=C(O)c1ccc(O)c(O)c1 [3,4-DHBA, 3,4-Dihydroxybenzoate] | 30 | –
2 | O=C(O)c1ccc(O)cc1 [4-HBA, 4-Hydroxybenzoate] | 15 | –
3 | Oc1ccccc1O [Catecol] | 30 | –
4 | N[C@@H](Cc1ccc(O)c(O)c1)C(=O)O (racemic) [L-Dopa, DL-Dihydroxyphenylalanin] | 10 | –
5 | N[C@@H](Cc1ccc(O)cc1)C(=O)O [L-Tyr, L-Tyrosine] | 8 | –
6 | O=C(O)Cc1ccccc1 [PA, Phenylacetic acid] | < 5 | –
7 | O=C(O)Cc1ccc(O)c(O)c1 [3,4-DHPA, 3,4-dihydroxyphenylacetate] | 50 | –
8 | O=C(O)Cc1ccccc1O [2-HPA, 2-Hydroxyphenylacetate] | < 5 | –
9 | O=C(O)Cc1ccc(O)cc1 [4-HPA, 4-hydroxyphenylacetate] | 100 | mineralization of the aromatic compound [2]: 12 h
10 | O=C(O)Cc1cccc(O)c1 [3-HPA] | 100 | 4-HPA hidroxylase ([3]; strain E. coli CC118, substrate growth Gly/4-HPA): <1; 4-HPA hidroxylase ([3]; strain E. coli P260, substrate growth Gly/4-HPA/Ap): 50±6; 4-HPA hidroxylase ([3]; strain E. coli P260, substrate growth LB/Ap): 57±9; 4-HPA hidroxylase ([3]; strain E. coli W-21 (plasmid), substrate growth Gly/4-HPA/Ap): 28±5; 4-HPA hidroxylase ([3]; strain E. coli W-21 (plasmid), substrate growth LB/Ap): <5; 4-HPA hidroxylase ([3]; strain E. coli W-21, substrate growth Gly/4-HPA): <1; 4-HPA hidroxylase ([3]; strain K. pneumoniae M5a1, substrate growth 4-HPA): 26±9; 4-HPA hidroxylase ([3]; strain K. pneumoniae M5a1, substrate growth LB): <1
